Numbered stars: 1 amine (or outer) side, 2 acyl side, 3 side chain; on linkers, the order of the positions; unused ones are H or OH. Bridge positions count the residues as written; N and C are the ends. Peptide text beside a SMILES is read from it. I, II: the chains in the order shown. Ethylenediamine = C(CN[*:2])N[*:1]; Suc = O=C(CCC(=O)[*:2])[*:1]
Columns and labels:
[1] = test system: HT-22 cells; test: Oxidative stress (H2O2) model in cultured HT-22 cells (MTT test); type: cell-based, mouse; conditions: for Optical density (MTT): Table 1.5, 24 h before H2O2, control 0.1275 ± 0.021, H2O2 0.087 ± 0.006; for neuronal survival under oxidative stress: added 24 hours prior to the stress exposure, 10^−8 M to 10^−5 M
Procedure: To induce an oxidative stress, the cells were placed in a growth medium containing 5% FBS, then a freshly prepared H2O2 solution was added to a final concentration of 1.5 mM and incubated for 30 min at 37° C. and 5% CO2. Thereafter, the medium was replaced with a new one and the cells were cultured for 4 h under the same conditions.
The determination of cell viability was carried out by MTT test. […] At the end of an experiment the growth medium was replaced with an MTT solution (0.5 mg/ml) and incubated for 30 min at 37° C. and 5% CO2. The MTT solution was then removed from the wells and DMSO was added to dissolve the formazan precipitate. Then the optical density was measured using a Multiscan (Thermo) spectrophotometer at a wavelength of 600 nm.

[2] = test system: PC12 cell line; test: Cellular model of Parkinson's disease (MPTP, MTT test); type: cell-based, rat; conditions: added 24 hours prior to MPTP 1 mM
Procedure: To produce a model for Parkinson's disease, MPTP was used at a final concentration of 1 mM (Shimoke K., Chiba H. Nerve growth factor prevents 1-methyl-[…]-1,2,3,6-tetrahydropyridine-induced cell death via the Akt pathway by suppressing caspase-3-like activity using PC12 cells: relevance to therapeutic application for Parkinson's disease. J. Neurosci. Res. 2001, 63, 402-409). MPTP was added to the cell growth medium containing 1% FBS at 24 hours after passage. The peptides were added to the cell growth medium concurrently with MPTP or 24 h before MPTP. Cell viability was determined at 24 h using an MTT test.

Q: Which “Optical density (MTT)” value ([1]; 10^−5M) does the source give for `NCCCC[C@H](NC(=O)[C@H](CCC(=O)O)NC(=O)CCC(=O)O)C(=O)NCCCCCC(=O)NCCCNC(=O)CCCCCNC(=O)[C@H](CCCCN)NC(=O)[C@H](CCC(=O)O)NC(=O)CCC(=O)O` [GK-2a, bis-(N-monosuccinyl-glutamyl-lysyl-6-aminohexanoic acid) trimethylenediamide] here?
A: 0.108 ± 0.019^

Q: And the “Optical density (MTT)” value ([1]; 10^−6M)?
A: 0.429 ± 0.02

Q: What about the “Optical density (MTT)” value ([1]; 10^−7M) of the same compound?
A: 0.449 ± 0.024

Q: And the “Optical density (MTT)” value ([1]; 10^−8M)?
A: 0.106 ± 0.028

Q: And the “neuronal survival under oxidative stress” value [1]?
A: improved the neuronal survival

Q: What about the “protective effect against MPTP” value [2] of the same compound?
A: protective effect

Q: `NCCCC[C@H](NC(=O)[C@H](CCC(=O)O)NC(=O)CCC(=O)O)C(=O)NCCNC(=O)[C@H](CCCCN)NC(=O)[C@H](CCC(=O)O)NC(=O)CCC(=O)O` [GK-2e, bis-(N-monosuccinyl-glutamyl-lysine)ethylenediamide] (I: Suc-Glu-Lys / II: Suc-Glu-Lys; linker I:C-II:C via Ethylenediamine) was tested. Which “neuronal survival under oxidative stress” value [1] did it give?
A: improved the neuronal survival

Q: For `NCCCCCC(=O)NCC(=O)N[C@@H](CCCCN)C(=O)NCCCCCCNC(=O)[C@H](CCCCN)NC(=O)CNC(=O)CCCCCN` [GK-6, bis-(N-(6-aminocaproyl)glycyl-lysine) hexamethylenediamide], which “neuronal survival under oxidative stress” value [1] is on record?
A: improved the neuronal survival

Q: How did the “neuronal survival under oxidative stress” value [1] turn out when `NCCCC[C@H](NC(=O)[C@H](CCC(=O)O)NC(=O)CCC(=O)O)C(=O)NCCCCCNC(=O)[C@H](CCCCN)NC(=O)[C@H](CCC(=O)O)NC(=O)CCC(=O)O` [GK-2b, bis-(N-monosuccinyl-glutamyl-lysine)pentamethylenediamide] was run?
A: improved the neuronal survival

— patent publication US9683014B2, “Dipeptide mimetics of NGF and BDNF neurotrophins” (UCHREZHDENIE ROSSIISKOI AKADEMII MEDITSYNSKIKH NAUK …, priority 2009, dated 2017)
